According to patent US20240326697A1, “SOLID FORMS OF SELECTIVE ANDROGEN RECEPTOR MODULATORS” (priority 2007, published 2024):
Values joined by “and” are separate entries in the source; they are usually repeats but may differ in a detail not shown here. Equal values may be shown once. Marks after values point to notes of the source that are not given here.

Columns and labels:
Format in all cases: physicochemical
[1] = Measurement of the approximate solubility (solvent added in steps to the solid); conditions: ethyl acetate/n-heptane 1:2 v/v, 23° C. (B′: solid form transformation into solid form A)
Experimental: To determine the approximate solubility at room temperature, the solvent was added in steps to the solid material. After every addition, the sample was well stirred. The addition of solvent was continued until complete dissolution or until 15 ml of solvent was added.

[2] = Water solubility of solid forms A and B′ (suspension shaken, filtered, HPLC; residue by Raman); conditions: 22° C.; for Solid residue: Raman, rough estimate; for solubility: mean of two measurements (±standard deviation)
Experimental: During the following experiments: suspension equilibration, precipitation experiment, recrystallization, relative stability experiments and water solubility experiment, a filtration step was conducted. Centrifugal filter devices: Ultrafree-CL (0.22 la,m), Millipore; Centrifuge type or Eppendorf 5804R were used at a temperature of 22° C. and centrifugation program of 2 min 3000 rpm.
HPLC was used to analyse the purity of S-1. HP 1090M HPLC machine was used with the following conditions: • Column: Symmetry Shield RP18, 3.9×150 mm, 5 μm • Column temperature: 35° C. • Injection volume: 10 μL • Solvent: acetonitrile+water 1:1 v/v • Mobile phase A: 0.1% TFA-water • Mobile phase B: 0.1% TFA-acetonitrile • Flow rate: 1 mL/min. • Detection: UV at 271 nm • Run time: 21 min. • Retention time (S-1): 10.7 min.
Suspensions of the solid forms (25 or 50 mg in 3.5 or 7.0 ml bidistilled water) were shaken (800 rpm) and filtered after 0.5 h, 1.5 h, 4 h and 20 h. After filtration the solid residue was checked by Raman spectroscopy and the concentration in the clear solution was determined by HPLC.

[3] = Suspension equilibration experiments
Experimental: Suspension equilibration experiments were carried out with 81-128 mg of the compound. The suspensions were stirred with a magnetic stirrer. The samples obtained after filtration were air dried at ambient temperature for a short time only to prevent possible desolvation of labile hydrates or solvates.

[4] = Dynamic vapor sorption (DVS); conditions: 25° C.
Experimental: Dynamic vapor sorption quantification relates the mass of water absorbed and subsequently desorbed during the crystallization process. In order to define whether batch P1, P2 and P4 are hydrated polymorphs, DVS measurements were conducted (FIG. 9). A sample (13 to 14 mg) was placed on a Pt pan, and the sample was allowed to equilibrate at 25° C./50% r.h. before starting a pre-defined humidity program (1.0 hours 50%, from 50% r.h. to 95% r.h.: 5% r.h./hour, 10 hours at 95% r.h., from 95% r.h. to 0% r.h.: 5% r.h./hour, 10 hours at 0% r.h., from 0% r.h. to 50% r.h.: 5% r.h./hour, 1 hours at 50% r.h.

[5] = Relative stability of polymorphic forms under dry conditions (heating, micronization); conditions: heating to 110° C. in the presence of D
Experimental: (§1) Thermal analysis was carried out with a Perkin Elmer DSC7 with the following experimental conditions: 3 to 6 mg sample mass, closed gold sample pan, temperature range −50° C. to 120° C., heating rate 20 K/min. The samples were weighed in air or dry N2 atmosphere. Additional thermal analysis was conducted using a TA Instruments Q1000 DSC using hermetic aluminum pans under various conditions.
Thus forms A and B″ can be considered to be practically stable at ambient temperature. […] Micronization of the polymorph A particles under dry conditions also produced ˜25% conversion to B″.

[6] = Relative stability of polymorphic forms under humid conditions (storage, DSC); conditions: 50° C./75% RH as well as ambient/75% RH, ambient/100% RH, 30° C./75% RH and 50° C./0% RH
Experimental: as §1
Polymorph A stays stable in its A form for at least 7 days under storage conditions of ambient temperature/75% RH (Relative Humidity), ambient temperature/100% RH, 30° C./75% RH and 50° C./0% RH.
In fact, polymorph D in the presence of moisture acts as the seed for the crystallization process and drives the transformation of polymorphs A and B′ into D, similar to its role in seeding the A to D crystallization in dry conditions. […] The amount of polymorph D initially added to the sample is very small that it isn't detectable by the DSC with heating rate of 10° C./min. […] The transformation process is speeded up in FIG. 17G (b) by storing the sample in water at 50° C. […] Further work has shown that the A and B′ convert to D in the presence of moisture at lower temperatures also albeit at slower rates.

[7] = Relative stability of toluene solvate in toluene / solubility in toluene
Experimental: Recrystallization of S-1 from a solvent/antisolvent system that uses toluene as the antisolvent produces the toluene solvate. Toluene solvate has a melting point near 100° C. with the enthalpy of melting 70±5 J/g.

C[C@](O)(COc1ccc(C#N)cc1)C(=O)Nc1ccc(C#N)c(C(F)(F)F)c1 [Form B′, (S)-N-(4-cyano-3-(trifluoromethyl)phenyl)-3-(4-cyanophenoxy)-2-hydroxy-2-methylpropanamide]
solubility [1]: >9 solid form mg/ml | solubility in water ([2]; stated as embodiment): 20 to 30 µg/mL and 23 to 27 µg/mL | Solid residue ([2]; water, 0.5 h): B′ | Solid residue ([2]; water, 1.5 h): B′ | Solid residue ([2]; water, 4.0 h): B′ | Solid residue ([2]; water, 20 h): B′ | pH of the solution ([2]; water, 20 h suspension equilibration): d) pH of the solution: 8.7 | solubility ([2]; water, suspension equilibration time 0.5 h): 27.4 ± 0.9 mg/1000 ml | solubility ([2]; water, suspension equilibration time 1.5 h): 27.3 ± 0.8 mg/1000 ml | solubility ([2]; water, suspension equilibration time 1.5 h, listed as B′): 27.3±0.8 mg/1000 ml | solubility ([2]; water, suspension equilibration time 4.0 h): 25.6 ± 0.1 mg/1000 ml | solubility ([2]; water, suspension equilibration time 20 h): 26.7 ± 0.3 ^c) mg/1000 ml | Form produced ([3]; ethyl acetate + n-heptane 1:2 v/v 81/1.7 mg/ml, stirred 2 h/23° C.): transformed into solid form A | Form produced ([3]; ethyl acetate + n-pentane 1:2 v/v 101/1.0 mg/ml, stirred 22 h/23° C.): transformed into solid form A | maximum water content at 94% r.h. ([4]; listed as solid form B′): approx. 2.4%

C[C@](O)(COc1ccc(C#N)cc1)C(=O)Nc1ccc(C#N)c(C(F)(F)F)c1 [Form B″, (S)-N-(4-cyano-3-(trifluoromethyl)phenyl)-3-(4-cyanophenoxy)-2-hydroxy-2-methylpropanamide]
solid form change on heating [5]: rearrange into D

C[C@](O)(COc1ccc(C#N)cc1)C(=O)Nc1ccc(C#N)c(C(F)(F)F)c1 [Form D, (S)-N-(4-cyano-3-(trifluoromethyl)phenyl)-3-(4-cyanophenoxy)-2-hydroxy-2-methylpropanamide]
solid form stability on storage [6]: stable | solid form stability on storage ([6]; listed as Polymorph D): remains stable | transformation in toluene suspension ([7]; sonication of the suspension for 10 minutes): partial transformation to the toluene solvate | transformation in toluene suspension ([7]; suspension (50 mg/mL) in toluene for 4 days, both at ambient temperature and 50° C.): no noticeable transformation from form D to the toluene solvate

C[C@](O)(COc1ccc(C#N)cc1)C(=O)Nc1ccc(C#N)c(C(F)(F)F)c1 [Form S-1, (S)-N-(4-cyano-3-(trifluoromethyl)phenyl)-3-(4-cyanophenoxy)-2-hydroxy-2-methylpropanamide]
solubility ([7]; toluene, organic solvent or mixture): < 2000 µg/mL

C[C@](O)(COc1ccc(C#N)cc1)C(=O)Nc1ccc(C#N)c(C(F)(F)F)c1 [Form S-1-P1, (S)-N-(4-cyano-3-(trifluoromethyl)phenyl)-3-(4-cyanophenoxy)-2-hydroxy-2-methylpropanamide]
maximum water content at 93% r.h. [4]: 1.5% | water content at 50% r.h. [4]: water content at 50% r.h.: 0.4%

C[C@](O)(COc1ccc(C#N)cc1)C(=O)Nc1ccc(C#N)c(C(F)(F)F)c1 [Form S-1-P2, (S)-N-(4-cyano-3-(trifluoromethyl)phenyl)-3-(4-cyanophenoxy)-2-hydroxy-2-methylpropanamide]
maximum water content at 95% r.h. [4]: 0.6% | water content at 50% r.h. [4]: water content at 50% r.h.: 0.3%

C[C@](O)(COc1ccc(C#N)cc1)C(=O)Nc1ccc(C#N)c(C(F)(F)F)c1 [Form S-1-P4, (S)-N-(4-cyano-3-(trifluoromethyl)phenyl)-3-(4-cyanophenoxy)-2-hydroxy-2-methylpropanamide]
maximum water content at 94% r.h. [4]: r.h.: ~2.4% | water content at 50% r.h. [4]: water content at 50% r.h.: ~0.8%
